Assay results as given in patent US20080063628A1, “METHODS TO PROMOTE CELL DIFFERENTIATION” (priority 2006, published 2008).

Key:
[1] = system: early passage (P5) pancreatic-derived stromal cell line; experiment: Two sequential low dose trichostatin A treatments, gene expression by RT-PCR (Example 7); assay type: cell-based, human; settings: for HNF (HNF-3 beta) gene expression / Insulin gene expression / Pdx-1 gene expression / glucagon gene expression: 1.25 μM 0-24 h + 96-120 h; for HNF-3 beta RT-PCR detection cycle / Pdx-1 RT-PCR detection cycle / glucagon RT-PCR detection cycle: 1.25 μM
Description: Several cell lines obtained from different amniotic fluid specimens (see Example 14) and pancreas donors (see Example 13) were tested with similar results. Two lines at similar passage number but derived from different amniotic fluid specimens are shown in Table VII-A and Table VII-B for this example. One of these cell lines was also used in examples 2 and 4 above. In addition, this example also contains comparison data in Table VII-C and Table VII-D for a single pancreatic-derived stromal line grown to early and late passage number.
Amniotic fluid derived cells or pancreatic-derived stromal cells were seeded into 24-well tissue culture plates at a density of 5000/cm^2 and cultured in AMNIOMAX (Invitrogen) or DMEM with 10% FBS respectively under standard cell culture conditions until confluent. After the cells reached confluency, amniotic fluid derived cells were treated at time 0 hours with a dose of 500 nM trichostatin A, and pancreatic-derived stromal cells were treated with a dose of 1.25 μM trichostatin A solubilized in DMSO and medium. At time 24 hours, cell cultures underwent a complete medium change to remove all traces of trichostatin A. At time 96 hours, cell cultures were re-fed with fresh medium and received a second dose of trichostatin A at the same concentration as used previously. […]
Samples were taken daily for RT-PCR at the times indicated in Table VII-A to D. The culture medium was removed, and samples were rinsed in PBS then collected in RLT with β-mercaptoethanol (Qiagen). RNA was purified using the RNeasy Mini Kit (Qiagen) and RNA quantity and quality were determined using a spectrophotometer. cDNA was made using the iScript cDNA synthesis kit (BioRad).
Samples of 20 ng cDNA were used in each reaction to determine the expression levels of the following genes in amniotic fluid-derived cells: Gata1, HNF-3 beta, Pdx-1, insulin, and Sox17. Similarly, samples of 20 ng cDNA were used in each reaction to determine the expression level of the following genes in pancreatic-derived cells: glucagon, HNF-3 beta, insulin and Pdx-1. Real-Time PCR was performed on the Applied Biosystems 7500, and data was analyzed using the accompanying software according to the methods described in Example 15.
Real-time PCR amplifcation and quantitative analysis. Unless otherwise stated, all reagents were purchased from Applied Biosystems. Real-time PCR reactions were performed using the ABI PRISM™ 7500 Sequence Detection System. TAQMAN™ FAST UNIVERSAL PCR MASTER MIX™ (ABI, CA) was used with 20 ng of reverse transcribed RNA in a total reaction volume of 20 μl. Each cDNA sample was run in duplicate to allow correction of pipetting errors. Primers and FAM-labeled TAQMAN™ probes were used at concentrations of 200 nM. The level of expression for each target gene was normalized using the pre-developed Applied Biosystem's human glyceraldehyde-3-phosphate dehydrogenase (GAPDH) endogenous control kit. Primers and probes were designed using either ABI PRISM PRIMER EXPRESS™ software or a pre-developed ABI gene analysis kit. For each gene, either one of the primers or the probe were designed to be exon-boundary spanning. This eliminated the possibility of the primers/probe binding to any genomic DNA present. The primer and probe sets are listed as follows: Pdx-1 (Hs00426216), Insulin (Hs00355773), glucagon (Hs00174967), and FoxA2 (HNF 3-beta) (Hs00232764). The remaining primers were designed using the PRIMERS program (ABI, CA). After an initial 95° C. incubation for 20 sec, samples were cycled 40 times in two stages: a denaturation step at 95° C. for 3 sec, followed by an annealing/extension step at 60° C. for 30 sec.
For each primer/probe set, a cycle time value was determined as the cycle number at which the fluorescence intensity of the PCR reaction reached a specific value in the middle of the exponential region of amplification. […]

[2] = system: second amniotic fluid-derived cell line; experiment: Two high dose trichostatin A treatments (first 48 h), gene expression by RT-PCR (Example 9); assay type: cell-based, human; settings: 1.25 μM, following first treatment;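 also: lower cycle number means higher gene expression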
[3] = 24 hours following the addition

SMILES: CC(/C=C/C(=O)NO)=C\[C@@H](C)C(=O)c1ccc(N(C)C)cc1 [trichostatin A]
- HNF (HNF-3 beta) gene expression ([1]; 24 hrs): +++ (detectable at less than 35 cycles by RT-PCR with SE less than 0.9)
- Insulin gene expression ([1]; 24 hrs): nd (not detectable at >40 cycles by RT-PCR)
- Pdx-1 gene expression ([1]; 24 hrs): +++ (detectable at less than 35 cycles by RT-PCR with SE less than 0.9)
- glucagon gene expression ([1]; 24 hrs): +++ (detectable at less than 35 cycles by RT-PCR with SE less than 0.9)
- HNF (HNF-3 beta) gene expression ([1]; 48 hrs): nd (not detectable at >40 cycles by RT-PCR)
- Insulin gene expression ([1]; 48 hrs): nd (not detectable at >40 cycles by RT-PCR)
- Pdx-1 gene expression ([1]; 48 hrs): nd (not detectable at >40 cycles by RT-PCR)
- glucagon gene expression ([1]; 48 hrs): + (detectable between 35 and 40 cycles by RT-PCR)
- HNF (HNF-3 beta) gene expression ([1]; 72 hrs): nd (not detectable at >40 cycles by RT-PCR)
- Insulin gene expression ([1]; 72 hrs): nd (not detectable at >40 cycles by RT-PCR)
- Pdx-1 gene expression ([1]; 72 hrs): nd (not detectable at >40 cycles by RT-PCR)
- glucagon gene expression ([1]; 72 hrs): nd (not detectable at >40 cycles by RT-PCR)
- HNF (HNF-3 beta) gene expression ([1]; 96 hrs): nd (not detectable at >40 cycles by RT-PCR)
- Insulin gene expression ([1]; 96 hrs): nd (not detectable at >40 cycles by RT-PCR)
- Pdx-1 gene expression ([1]; 96 hrs): nd (not detectable at >40 cycles by RT-PCR)
- glucagon gene expression ([1]; 96 hrs): nd (not detectable at >40 cycles by RT-PCR)
- HNF (HNF-3 beta) gene expression ([1]; 120 hrs): +++ (detectable at less than 35 cycles by RT-PCR with SE less than 0.9)
- Insulin gene expression ([1]; 120 hrs): nd (not detectable at >40 cycles by RT-PCR)
- Pdx-1 gene expression ([1]; 120 hrs): +++ (detectable at less than 35 cycles by RT-PCR with SE less than 0.9)
- glucagon gene expression ([1]; 120 hrs): + (detectable between 35 and 40 cycles by RT-PCR)
- HNF (HNF-3 beta) gene expression ([1]; 144 hrs): nd (not detectable at >40 cycles by RT-PCR)
- Insulin gene expression ([1]; 144 hrs): nd (not detectable at >40 cycles by RT-PCR)
- Pdx-1 gene expression ([1]; 144 hrs): nd (not detectable at >40 cycles by RT-PCR)
- glucagon gene expression ([1]; 144 hrs): + (detectable between 35 and 40 cycles by RT-PCR)
- HNF-3 beta RT-PCR detection cycle [1, 3]: 34 cycles
- Pdx-1 RT-PCR detection cycle [1, 3]: 34 cycles
- HNF-3 beta RT-PCR detection cycle ([1]; after the second addition): 33 cycles
- Pdx-1 RT-PCR detection cycle ([1]; after the second addition): 33 cycles
- glucagon RT-PCR detection cycle ([1]; after the second treatment cycle): 37 cycles
- glucagon RT-PCR detection cycle ([1]; first 48 hours after addition): 34 cycles
- Gata-1 RT-PCR detection cycle [2]: 38 cycles
